Source: patent US20210393734A1, “THERAPEUTIC AGENT FOR ARTHRITIS” (OSAKA UNIVERSITY, priority 2018, published 2021)
“Also recorded” adds a separate entry of the source.

What was measured:
[1] = test system: R3 cells (osteoclast precursor cells existing in an inflammatory synovial membrane); assay: Suppression of differentiation of R3 cells into osteoclasts (in vitro); type: cell-based, mouse; conditions: 10 ng/ml M-CSF, 100 ng/ml RANKL, 0.5, 1, or 2 μM thiostrepton, 96-well plate, FIG. 2
From the text: FIG. 2 is figures showing the effect of thiostrepton on the osteoclast differentiation of R3s (in vitro). Photographs indicate that osteoclast differentiation is suppressed by thiostrepton administration (reds show osteoclasts, and greens show precursor cells).
A) CD45-positive cells of blood and a synovial membrane of a collagen-induced arthritis model mouse (CIA model) were selected by flow cytometry, and the cell fractions were identified with the fluorescence of CX3CR1-EGFP and Ly6C-APC. A CX3CR1lowLy6Chi fraction in blood was defined as R1, a CX3CR1lowLy6Chi fraction in an inflammatory synovial membrane was defined as R2, and a CX3CR1hiLy6Cint fraction was defined as R3 (FIG. 1A).

[2] = test system: Collagen-induced arthritis (CIA) mice; assay: Effect in collagen-induced arthritis (CIA) model mouse (in vivo); design: species or system DBA-1/J mice; conditions: 20 mg/kg or 50 mg/kg intraperitoneally every other day from the twenty-first day, compared with the control group
Description: Collagen-induced arthritis (CIA) mice were divided into three groups, and 20 mg/kg or 50 mg/kg of thiostrepton or a base (contrast) was intraperitoneally administered every other day from the twenty-first day. Methods for producing and evaluating CIA mice are as follows.
Arthritis was caused using 8- to 10-week-old DBA-1/J mice. Chicken type II collagen was dissolved in a 0.05 M acetic acid solution and rotated at 4° C. all night to make a solution at a concentration of 4.0 mg/ml, and the solution was mixed with the same volume of Freund's complete adjuvant. On the first day, 100 μl of the emulsion was injected into the tail of each of the above-mentioned DBA-1/J mice for immunization, and the administration was repeated in the same way on the twenty-first day. The severity of arthritis was evaluated in accordance with a semi-quantitative score method which consists of an established 5-point scale. The scale is as follows: 0: no swelling, 1: slight swelling only in the heel or the tarsal bones, 2: slight swelling from the heel to the tarsal bones, 3: considerable swelling from the heel to the metatarsal articulation, and 4: severe swelling spreading over an area including the heel, the foot, and the toes. […]
Image analysis using micro-CT was performed. The osteoclastic score was determined with reference to previous study (refer to O'Brien, Arthritis Rheumatol. 2016).

[3] = test system: CX3CR1-positive HLA-DRhi cells from synovial fluid and articulation tissue of a rheumatoid arthritis patient; assay: Osteoclast differentiation of CX3CR1-positive HLA-DRhi cells of a rheumatoid arthritis patient; type: cell-based; conditions: human RA patient cells, 50 ng/ml M-CSF, 100 ng/ml RANKL, 0.5 μM thiostrepton, 96-well plate; FIG. 5B
Description: The photographs indicate that the osteoclast differentiation is inhibited by thiostrepton administration.
When these cells were collected by flow cytometry and cultured on a 96-well plate with 50 ng/ml M-CSF, 100 ng/ml RANKL, and 0.5 μM thiostrepton added.

C=C(NC(=O)C(=C)NC(=O)c1csc(C2=N[C@@H]3c4csc(n4)[C@H]4NC(=O)c5csc(n5)[C@H]([C@](C)(O)[C@@H](C)O)NC(=O)[C@H]5CSC(=N5)/C(=C/C)NC(=O)[C@H]([C@@H](C)O)NC(=O)c5csc(n5)[C@]3(CC2)NC(=O)[C@H](C)NC(=O)C(=C)NC(=O)[C@H](C)NC(=O)[C@H]([C@@H](C)CC)N[C@@H]2C=Cc3c([C@H](C)O)cc(nc3[C@H]2O)C(=O)O[C@@H]4C)n1)C(N)=O [thiostrepton]
capability to differentiate into osteoclasts (number of nuclei contained in osteoclasts in one visual field) [1]: remarkably suppressed
arthritis score ([2]; FIG. 3A): decreased significantly
osteoclastic score imaged by micro-CT (erosion score) ([2]; FIG. 3B): decreased significantly
differentiation into osteoclasts (number of nuclei contained in osteoclasts in one visual field) [3]: inhibited; also recorded: significantly suppressed
